Laboratory results: patent US20260015357A1, “MODULATORS OF NLRP3 INFLAMMASOME AND RELATED PRODUCTS AND METHODS” (Neumora Therapeutics, Inc., priority 2022, published 2026)
pIC50: −log10 of the molar value.

Tests used:
NLRP3 inflammasome = target: T1, NLRP3 inflammasome (Homo sapiens, UniProt Q96P20); test: NLRP3 inflammasome activation in LPS-primed, nigericin-activated THP1 macrophages, IL-1β AlphaLISA; assay type: cell-based; conditions: PMA-differentiated, 1 hr compound, Nigericin 6.7 uM 3 hrs, IL-1β in supernatant
T1 construct: host or cells: THP1 human acute monocytic leukemia cells, PMA-differentiated, LPS-primed
T1 sequence (Q96P20 whole entry): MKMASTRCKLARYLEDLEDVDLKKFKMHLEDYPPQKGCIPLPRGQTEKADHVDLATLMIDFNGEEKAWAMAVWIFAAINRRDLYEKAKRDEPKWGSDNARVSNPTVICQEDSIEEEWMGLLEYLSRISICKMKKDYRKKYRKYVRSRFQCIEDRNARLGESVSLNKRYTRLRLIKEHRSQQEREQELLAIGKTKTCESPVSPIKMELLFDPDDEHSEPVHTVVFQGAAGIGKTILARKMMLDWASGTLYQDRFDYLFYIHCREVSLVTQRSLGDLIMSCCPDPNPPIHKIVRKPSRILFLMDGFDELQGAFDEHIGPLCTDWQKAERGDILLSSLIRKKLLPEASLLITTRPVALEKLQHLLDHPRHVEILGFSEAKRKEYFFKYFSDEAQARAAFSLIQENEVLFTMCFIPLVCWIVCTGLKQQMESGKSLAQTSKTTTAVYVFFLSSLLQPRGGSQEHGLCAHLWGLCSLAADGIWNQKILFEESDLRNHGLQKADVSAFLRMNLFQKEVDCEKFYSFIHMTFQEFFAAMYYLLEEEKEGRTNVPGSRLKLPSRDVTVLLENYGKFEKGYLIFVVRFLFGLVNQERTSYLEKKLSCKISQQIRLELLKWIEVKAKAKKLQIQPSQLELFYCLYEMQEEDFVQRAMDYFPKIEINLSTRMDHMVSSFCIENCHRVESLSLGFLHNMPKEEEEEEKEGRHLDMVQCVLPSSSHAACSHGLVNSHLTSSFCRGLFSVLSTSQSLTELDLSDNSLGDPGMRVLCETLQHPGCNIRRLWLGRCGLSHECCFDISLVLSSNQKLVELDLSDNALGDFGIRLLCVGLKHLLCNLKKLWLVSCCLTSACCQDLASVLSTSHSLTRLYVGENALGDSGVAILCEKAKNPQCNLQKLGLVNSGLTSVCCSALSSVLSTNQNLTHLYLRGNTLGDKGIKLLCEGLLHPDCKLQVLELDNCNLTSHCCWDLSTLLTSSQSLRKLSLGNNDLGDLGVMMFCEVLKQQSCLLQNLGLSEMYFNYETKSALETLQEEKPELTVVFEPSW
Protocol: (§1) NLRP3 Inflammasome Activation and Cell Viability Assessment in THP1 Macrophages
(§2) THP1—Human acute monocytic leukemia cells were cultured (ATCC, cat #TIB-202) in Gibco RPMI-1640 medium (ThermoFisher cat #72400054) supplemented with 10% Heat Inactivated FBS at density between 3-8×10^5 viable cells/mi. The cells were then subcultured when the cell concentration reached 8×10^5 cells/mL (every 2-3 days).
(§3) The parameter wells were filled with 50 ul PBS and incubated at 37° C., 5% CO2 for 48 hrs.
(§4) After 48 hrs incubation, the PMA containing media was removed, and changed for 40 ul/well of fresh DMEM, 10% FBS, 1× GlutaMax and incubated at 37° C., 5% CO2 for 24 hrs.
(§5) The following day the cells were primed with LPS (E. coli) (Sigma, cat #L3129) […] in DMEM, 10% FBS, 1× GlutaMax for 3 hrs at 37° C., 5% CO2.
(§6) Following the LPS priming step, the cells were treated with compounds at 10 uM top final concentration, 1:4 dilution, 8 times: (10 uM, 2.5 uM, 0.625 uM, 0.156 uM, 0.039 uM, 0.0097 uM, 0.0024 uM, 0.0006 uM). DMSO was used as a vehicle control, and MCC950 (InvivoGen, cat #inh-mcc) was used at 1 uM as a positive control, and incubated for 1 hrs at 37° C., 5% CO2.
(§7) Following the 1 hr compound incubation, the NLRP3 inflammasome activation step was conducted by treating cells with Nigericin (InvivoGen, cat #tlrl-nig) at 6.7 uM final concentration for 3 hrs at 37° C., 5% CO2.
(§8) Thereafter, 30 ul samples of cells' supernatants were collected for cytokine analysis which was conducted on Hu IL-1β AlphaLISA (Perkin Elmer, cat #AL220C) and Hu IL-6 AlphaLISA (Perkin Elmer, cat #AL220C). The cells' viability was assessed by performing CellTiter-Glo Luminescent Assay (Promega, cat #G7572) according to the manufacturer's protocol.

IL-6 = IL-6 in supernatants of LPS-primed, nigericin-treated THP1 macrophages, Hu IL-6 AlphaLISA; assay type: cell-based; conditions: Homo sapiens, THP-1, PMA-differentiated, 1 hr compound, Nigericin 6.7 uM 3 hrs, IL-6 in supernatant
Protocol: as §1, §2, §3, §4, §5, §6, §7, §8

| pIC50 (NLRP3 inflammasome) | pIC50 (IL-6) | SMILES |
| --- | --- | --- |
| > 8.00 | 5.00 to 5.30 | CN1CCC[C@@H](Nc2nnc(-c3ccc(F)cc3O)c3cc[nH]c23)C1 [Compound 4] |
| 6.30 to 7.00 | ≤ 5.00 | CN1CCC[C@@H](N(C)c2nnc(-c3ccc(C(F)(F)F)cc3)c3cc[nH]c23)C1 [Compound 25] |
| 6.30 to 7.00 | ≤ 5.00 | CN1CCC[C@@H](Nc2nnc(-c3ccc(F)cc3O)c3[nH]ccc23)C1 [Compound 7] |
| > 8.00 | ≤ 5.00 | CN1CCC[C@@H](Nc2nnc(-c3ncc(C#N)cc3O)c3cc(Cl)n(C)c23)C1 [Compound 165] |
| 7.00 to 8.00 | ≤ 5.00 | Cc1cc(C(F)(F)F)ccc1-c1nnc(N[C@@H]2CCCN(C)C2)c2c1cnn2C [Compound 110] |
| 6.30 to 7.00 | ≤ 5.00 | CN1CCC[C@@H](Nc2nnc(-c3ccc(C#N)cc3Cl)c3ccn(C)c23)C1 [Compound 124] |
| 5.00 to 6.00 | ≤ 5.00 | Cc1cc(C#N)cnc1-c1nnc(N[C@@H]2CCCN(C)C2)c2c1ccn2C [Compound 132] |
| 6.30 to 7.00 | ≤ 5.00 | Cc1c[nH]c2c(N[C@@H]3CCCN(C)C3)nnc(-c3ccc(F)cc3)c12 [Compound 73] |
| 6.30 to 7.00 | ≤ 5.00 | CN1CCC[C@@H](N(C)c2nnc(-c3ccc(F)cc3O)c3ccsc23)C1 [Compound 98] |
| > 8.00 | 5.00 to 5.30 | Cc1cc(C#N)cc(O)c1-c1nnc(N[C@@H]2CCCN(C)C2)c2c1ccn2C [Compound 127] |
| 7.00 to 8.00 | ≤ 5.00 | CN1CCC[C@@H](Nc2nnc(-c3ncc(C(F)(F)F)cc3Cl)c3ccn(C)c23)C1 [Compound 131] |
| 5.00 to 6.00 | ≤ 5.00 | COc1cc(C)ccc1-c1nnc(N[C@@H]2CCCN(C)C2)c2c1cnn2C [Compound 167] |
| > 8.00 | 5.30 to 6.00 | CN1CCC[C@@H](Nc2nnc(-c3ccc(C(F)(F)F)cc3)c3cc[nH]c23)C1 (single isomer, unassigned) [Compound 1] |
| 6.30 to 7.00 | ≤ 5.00 | CN1CCC[C@@H](Oc2nnc(-c3ccc(F)cc3O)c3ccoc23)C1 [Compound 91] |
| > 8.00 | 5.30 to 6.00 | Cc1cc(C(F)(F)F)ccc1-c1nnc(N[C@@H]2CCCN(C)C2)c2c1ccn2C [Compound 123] |
| 6.30 to 7.00 | 5.00 to 5.30 | CN1C[C@H](Nc2nnc(-c3ccc(C(F)(F)F)cc3)c3cc[nH]c23)CC(F)(F)C1 [Compound 19] |
| 7.00 to 8.00 | – | Cc1cc(C#N)ccc1-c1nnc(N[C@@H]2CCCN(C)C2)c2c1ccn2C [Compound 125] |
| 6.30 to 7.00 | 5.00 to 5.30 | CN1CCC[C@@H](Oc2nnc(-c3ccc(C(F)(F)F)cc3)c3ccn(C)c23)C1 [Compound 85] |
| > 8.00 | – | CN1CCC[C@@H](Nc2nnc(-c3ccccc3O)c3cc[nH]c23)C1 [Compound 14] |

| pIC50 (NLRP3 inflammasome) | pIC50 (IL-6) | SMILES |
| --- | --- | --- |
| 7.00 to 8.00 | ≤ 5.00 | Cc1cc(C(F)(F)F)cnc1-c1nnc(N[C@@H]2CCCN(C)C2)c2c1cnn2C [Compound 137] |
| 7.00 to 8.00 | ≤ 5.00 | CN1CCC[C@@H](Nc2nnc(-c3ccc(Cl)cc3C(F)F)c3ccn(C)c23)C1 [Compound 121] |
| 7.00 to 8.00 | ≤ 5.00 | CN1CCC[C@@H](Nc2nnc(-c3ccc(C(F)(F)F)cc3C(F)F)c3cnn(C)c23)C1 [Compound 119] |
| 7.00 to 8.00 | ≤ 5.00 | CN1CCC[C@@H](Nc2nnc(-c3ccc(C#N)cc3O)c3c2cnn3C)C1 [Compound 104] |
| 7.00 to 8.00 | ≤ 5.00 | COCCN1CCC[C@@H](Nc2nnc(-c3ccc(C#N)cc3O)c3ccn(C)c23)C1 [Compound 153] |
| 6.30 to 7.00 | ≤ 5.00 | CN1CCC[C@@H](Nc2nnc(-c3ccc(C#N)cc3)c3ccn(C)c23)C1 [Compound 79] |
| 7.00 to 8.00 | ≤ 5.00 | CN1CCC[C@@H](Nc2nnc(-c3ccc(C(F)(F)F)cc3)c3ccoc23)C1 [Compound 53] |
| 5.00 to 6.00 | ≤ 5.00 | CN1CCC[C@@H](Nc2nnc(-c3ncc(C(F)(F)F)cc3O)c3ccn(C)c23)C1 [Compound 168] |
| 7.00 to 8.00 | ≤ 5.00 | Cn1ncc2c(-c3ccc(C(F)(F)F)cc3)nnc(N[C@@H]3CCCN(CC4CC4)C3)c21 [Compound 108] |
| 7.00 to 8.00 | ≤ 5.00 | CN1CCC[C@@H](Nc2nnc(-c3ccc(C(F)(F)F)cc3)c3ccsc23)C1 [Compound 61] |
| 6.30 to 7.00 | ≤ 5.00 | CN1CCC[C@@H](Nc2nnc(-c3ccc(C#N)cc3C(F)F)c3cnn(C)c23)C1 [Compound 117] |
| 6.30 to 7.00 | ≤ 5.00 | CN1CCC[C@@H](Oc2nnc(-c3ccc(C(F)(F)F)cc3)c3ccsc23)C1 [Compound 87] |
| 6.00 to 6.30 | – | CN1CCC[C@@H](Nc2nnc(-c3ccccc3)c3cc[nH]c23)C1 [Compound 15] |
| 5.00 to 6.00 | ≤ 5.00 | CN1CCC[C@@H](Nc2nnc(-c3ccc(Cl)cc3)c3[nH]ccc23)C1 [Compound 11] |
| 6.30 to 7.00 | ≤ 5.00 | CN1CCC[C@@H](Nc2nnc(-c3ccccc3O)c3[nH]ccc23)C1 [Compound 8] |
| > 8.00 | 5.00 to 5.30 | Cc1cc(C(F)(F)F)ccc1-c1nnc(N[C@@H]2CCCN(C)C2)c2[nH]ccc12 [Compound 6] |
| ≤ 5.00 | 5.00 to 5.30 | CN1CCC[C@@H](N(C)c2nnc(-c3ccccc3O)c3[nH]ccc23)C1 (single isomer, unassigned) [Compound 68] |
| 6.30 to 7.00 | ≤ 5.00 | CN1CCC[C@@H](Oc2nnc(-c3ccc(F)cc3O)c3ccsc23)C1 [Compound 86] |
| ≤ 5.00 | ≤ 5.00 | Cc1cc(-c2nnc(N[C@@H]3CCCN(C)C3)c3cc[nH]c23)ccc1C(F)(F)F [Compound 66] |

| pIC50 (NLRP3 inflammasome) | pIC50 (IL-6) | SMILES |
| --- | --- | --- |
| 5.00 to 6.00 | 5.30 to 6.00 | CN1CCC[C@@H](N(C)c2nnc(-c3ccccc3O)c3ccn(C)c23)C1 [Compound 18] |
| 6.00 to 6.30 | ≤ 5.00 | CN1CCC[C@@H](N(C)c2nnc(-c3ccc(C#N)cc3O)c3ccn(C)c23)C1 [Compound 102] |
| 7.00 to 8.00 | ≤ 5.00 | CN1CCC[C@@H](Nc2nnc(-c3ccccc3O)c3c2ccn3C)C1 (single isomer, unassigned) [Compound 67] |
| 6.00 to 6.30 | ≤ 5.00 | CN1CCC[C@@H](Nc2nnc(-c3ccc(C(F)(F)F)cc3)c3nc[nH]c23)C1 [Compound 20] |
| 7.00 to 8.00 | ≤ 5.00 | CN(C)CCN1CCC[C@@H](Nc2nnc(-c3ccc(C#N)cc3O)c3ccn(C)c23)C1 [Compound 156] |
| ≤ 5.00 | ≤ 5.00 | Cc1c[nH]c2c(-c3ccc(F)cc3)nnc(N[C@@H]3CCCN(C)C3)c12 [Compound 74] |
| 5.00 to 6.00 | ≤ 5.00 | CN1CCC[C@@H](N(C)c2nnc(-c3ccc(C(F)(F)F)cc3)c3[nH]ccc23)C1 [Compound 72] |
| 6.30 to 7.00 | ≤ 5.00 | CNCCN1CCC[C@@H](Nc2nnc(-c3ccc(C#N)cc3O)c3ccn(C)c23)C1 [Compound 155] |
| 7.00 to 8.00 | – | CN1CCC[C@@H](Nc2nnc(-c3ncc(C#N)cc3O)c3cnn(C)c23)C1 [Compound 114] |
| 6.30 to 7.00 | ≤ 5.00 | CN1CCC[C@@H](Oc2nnc(-c3ccc(F)cc3O)c3ccn(C)c23)C1 [Compound 89] |
| 7.00 to 8.00 | ≤ 5.00 | CN1CCC[C@@H](Nc2nnc(-c3ccc(Cl)cc3C(F)F)c3cnn(C)c23)C1 [Compound 118] |
| 6.30 to 7.00 | ≤ 5.00 | Cc1cn(C)c2c(N[C@@H]3CCCN(C)C3)nnc(-c3ccc(C(F)(F)F)cc3)c12 [Compound 97] |
| 7.00 to 8.00 | – | N#Cc1ccc(-c2nnc(N[C@@H]3CCCN(CCF)C3)c3sncc23)c(O)c1 [Compound 150] |
| ≤ 5.00 | – | CN1CCC[C@@H](Nc2nnc(-c3ccccc3)c3[nH]ccc23)C1 [Compound 70] |
| ≤ 5.00 | – | CN1CCC[C@@H](Nc2nnc(-c3ncc(C#N)cc3O)c3ccn(C)c23)C1 [Compound 135] |
| 6.30 to 7.00 | – | CN1CCC[C@@H](Nc2nnc(-c3ccc(C#N)cc3C(F)F)c3ccn(C)c23)C1 [Compound 120] |
| 5.00 to 6.00 | – | CN1CCC[C@@H](Nc2nnc(-c3ncc(C#N)cc3Cl)c3cnn(C)c23)C1 [Compound 140] |
| > 8.00 | – | CN1CCC[C@@H](Nc2nnc(-c3ccc(C(F)(F)F)cc3C(F)F)c3ccn(C)c23)C1 [Compound 122] |
| 7.00 to 8.00 | – | CN1CCC[C@@H](Nc2nnc(-c3ccc(C(F)(F)F)cc3)c3c2ccn3C)C1 [Compound 69] |

| SMILES | pIC50 (NLRP3 inflammasome) | pIC50 (IL-6) |
| --- | --- | --- |
| CN1CCC[C@@H](Nc2nnc(-c3ccc(C(F)(F)F)cc3)c3cnsc23)C1 [Compound 63, (R)—N-(1-methylpiperidin-3-yl)-4-(4-(trifluoromethyl)phenyl)isothiazolo[4,5-d]pyridazin-7-amine] | 7.00 to 8.00 | 5.00 to 5.30 |
